# Test results from patent US8168232B2, “Formulations and methods of using nitric oxide mimetics in cancer treatment” (priority 2000, dated 2012).
# Where a name gives a salt, the structure may show the parent alone.
# Legend:
# [1] = concentrations up to 500 μM; cited from earlier work
# [2] = test system: hypoxia-inducible factor-1; conditions: hypoxically cultured Hep3B cells; read-out: IC50 for suppression of the adaptive cellular response controlled by hypoxia-inducible factor-1; cited from earlier work
# [3] = test system: Bl6F10 metastatic melanoma cells; test: In vivo experimental metastasis (lung colonization) model; set-up: species or system C57BL6 mice; conditions: cells cultured in 1% O2 with 8-Br-cGMP (1 μM)
# Procedure: C57BL6 mice were injected i.v. (tail vein) with a bolus of 5×10^4-10^5 Bl6F10 metastatic melanoma cells. Immediately after the tail vein injection, mice were randomly divided into groups of 15 and mice in each group were placed in plexiglass chambers (approximately 3 L) which were continuously flushed with gas mixtures of 20% O2:balance N2 and 10% O2:balance N2, respectively. […] After a 24 hour exposure to an atmosphere of either 20% O2 or 10% O2, mice were removed from the chambers and placed in regular cages kept at room air. Thirteen days later, mice were sacrificed by cervical dislocation, and lungs were removed and fixed in Bouin's fixative (Sigma). Metastatic nodules (many of which appeared black due to the presence of melanin) on the surface of the lungs were counted visually under a dissecting microscope. Data were expressed as the number of lung nodules per 10^4 cells injected and were analyzed using statistical tests for non-parametric values.
# (§1) Cells were then removed from plates with trypsin and 5×10^4 cells were injected i.v. (tail vein) into C57BL6 female mice. Some of the cells treated in vitro were plated onto tissue culture dishes to determine colony-forming ability using the protocol described below in the Section I.J.
# (§2) Following harvesting from culture plates, 5×10^4 cells were injected intravenously (tail vein injections) into 5-7 week old C57Bl/6 female mice. Cells were also plated in tissue culture plates to determine the effect of culture conditions on in vitro colony forming ability. Fourteen days after intravenous inoculation, mice were sacrificed and their lungs were removed and fixed in Bouin's fixative. Both melanotic and amelanotic metastatic colonies were counted under a dissecting microscope. Data were expressed as the number of lung nodules per 5×10^4 viable cells injected (as determined by in vitro colony-forming ability) and were analyzed using statistical tests for non-parametric values.
# uPAR mRNA = test: Northern blot analysis of uPAR mRNA in MDA-MB-231 breast carcinoma cells; format: cell-based, human
# uPAR protein = test: Western blot analysis of uPAR protein in MDA-MB-231 breast carcinoma cells; format: cell-based, human
# Procedure: Following incubations, the cells were lysed using a buffer containing 40 mM HEPES pH 7.2, 100 mM NaCl, 20% glycerol, 0.1 mM EDTA pH 8.0, 0.2% Triton X-100, 1 mM DTT, and 2 mM PMSF. The lysates were then subjected to homogenization, DNA shearing (10 times with a 25⅝-gauge needle), boiling (5 minutes) and centrifugation (15 minutes, 14000 g). The supernatant was collected and stored at −80° C. until use. The samples were subjected to SDS-polyacrylamide gel electrophoresis (PAGE) and the resolved proteins were transferred to an Immobilon-P membrane using a wet transfer apparatus (Bio-Rad Laboratories, Mississauga, ON). The membranes were blocked overnight at 4° C. in a solution containing 1% PBS, and 0.01% Tween20 (PBS-T) as well as 5% casein. The blots were subsequently incubated for 1.5 hours with the monoclonal anti-uPAR antibody [MoAb 3937], followed by six 5 minute washes with PBS-T. The membranes were then incubated with a horseradish peroxidase labeled goat anti-mouse IgG secondary antibody for 1.5 hours. Following six additional 5 minute washes with PBS-T, the antigen was detected by enhanced chemiluminescence and the blots were exposed onto Dupont Reflection NEF film.
# Following incubation, the cells were lysed using a buffer containing 40 mM HEPES pH 7.2, 100 mM NaCl, 20% glycerol, 0.1 mM EDTA pH 8.0, 0.2% Triton X-100, 1 mM dithiothreitol (DTT), and 2 mM phenylmethyl sulfonyl fluoride (PMSF). The lysates were then subjected to homogenization, DNA shearing (10 times with a 25⅝-gauge needle), boiling (5 minutes) and centrifugation (15 minutes at 14,000×g). The supernatant was collected and stored at −80° C. until use. The samples were subjected to SDS-polyacrylamide gel electrophoresis (PAGE) and the resolved proteins were transferred to an Immobilon-P membrane (Millipore Corp., Bedford, Mass.) using a wet transfer apparatus (BioRad Laboratories, Mississauga, ON). The membranes were blocked overnight at 4° C. in a solution containing 1% PBS, and 0.01% Tween 20 (PBS-T) as well as 5% dry milk powder. The blots were subsequently incubated for 1.5 hours with the monoclonal anti-uPAR (MoAb 3937; American Diagnostica Inc., Greenwich, Conn.), or a polyclonal soluble guanylate cyclase (sGC) antiserum (Cayman Chemical, Ann Arbor, Mich.) followed by six 5-minute washes with PBS-T. Subsequently, the uPAR membranes were incubated for 1 hour with a horseradish peroxidase labelled goat anti-mouse IgG secondary antibody (Bio-Rad, Hercules, Calif.) and the sGC membranes were incubated for 1 hour with a goat anti-rabbit IgG horseradish peroxidase conjugate (VECTOR Laboratories Inc., Burlingame, Calif.). Following six additional 5-minute washes with PBS-T, the antigen was detected by enhanced chemiluminescence (Amersham Canada Inc., Mississauga, ON) and the blots were exposed onto Dupont Reflection NEF film.
# [4] = test system: MDA-MB-231 breast carcinoma cells; test: In vitro Matrigel invasion assay, MDA-MB-231; format: cell-based, human
# Procedure: The chambers consist of cell culture inserts, 6.5 mm in diameter and with a 8 μm pore size membrane. Each membrane was coated with 100 μL of a 1 mg/mL solution of Matrigel diluted in cold serum-free culture medium (EX-CELL 300), and allowed to dry in a laminar flow cabinet for approximately 12 hours. The Matrigel was then rehydrated by incubating it with 100 μL of serum-free medium for approximately 1 hour. After rehydration, cell suspensions containing 5.0×10^4 or 1.0×10^5 cells in 100 μL of medium, containing both serum and the nitric oxide treatments, were added to each well. Culture medium containing serum and the respective nitric oxide treatment were then added to each insert. The cells were incubated for 24 hours under either hypoxic (1% O2) or control (20% O2) conditions. Following incubation, the non-invading cells were removed from the upper surface of the membrane by wiping with a cotton swab. The cells on the lower surface of the membrane were fixed for 10 minutes with Carnoy's fixative (25% acetic acid, 75% methanol), and then stained for approximately 3 hours with a 1% toluidine blue, 1% sodium borate solution. Following a rinse in phosphate-buffered saline (PBS), the membrane was removed from the insert housing with a small scalpel blade, mounted onto a microscope slide and coverslipped. Invading cells were then viewed under the microscope at 40× magnification and counted. The invasion index for each treatment was calculated by dividing the number of invading cells by the number of cells which invaded under standard conditions. This value was then multiplied by 100 to obtain a percentage. The standard was given a value of 100% and the treatment values were converted to a percentage of the standard. The results were tested for statistical significance using either the Tukey test for pair-wise multiple comparison procedures or the Student-Newman-Keuls method for pair-wise multiple comparison procedures.
# The chambers consisted of 6.5-mm inserts with 8-μm pore membranes (Corning Costar Corp., Cambridge, Mass.). Each membrane was coated with 100 μL of a 2.6 mg/mL solution of Matrigel (Collaborative Biochemical Products, Bedford, Mass.) diluted in cold serum-free medium (EX-CELL 300; JRH Biosciences, Lenexa, Kans.), and allowed to dry in a laminar flow cabinet for approximately 12 hours. The Matrigel was then rehydrated with 100 μL of serum-free medium for approximately 1 hour. […] Invading cells were then viewed under the microscope at 40× magnification and counted. The invasion index for each treatment was calculated by dividing the number of invading cells by the number of cells that invaded under standard (20% oxygen) conditions. Invasion indices were expressed as percentages of control (20% oxygen) values. […]
# [5] = test system: Bl6F10 mouse melanoma cells; test: In vitro colony-forming ability of treated Bl6F10 melanoma cells; format: cell-based; conditions: 8-Br-cGMP treatment
# Procedure: as §1, §2
# [6] = test system: MDA-MB-231 breast carcinoma spheroids; test: Clonogenic survival of MDA-MB-231 spheroids after doxorubicin; format: cell-based, human
# Procedure: Following initial cell plating, spheroids formed for 24, 48, 72, 96 or 120 h. At each time point, spheroids were exposed to 200 μM of doxorubicin, then disaggregated and plated for assessment of colony formation (survival).
# Spheroids were allowed to form for 72 h. DETA/NO was applied for the final 24 h of spheroid formation. Spheroids were then exposed to doxorubicin for 1 h, prior to disaggregation and plating for assessment of survival by clonogenic assay.
# Using human MDA-MB-231 breast carcinoma cells in clonogenic assays, survival was determined following doxorubicin exposure and NO mimetic administration to both monolayer and spheroid cultures.
# [7] = 8-Br-cGMP 0.1 μM-10 μM, 24 hours, dose-dependent
# [8] = 8-Br-cGMP 10^−3-10^−7 M, 0.5% O2 or DFO 100 μM
compound,measurement,setting,value
CCCN(CCCN)N(O)N=O [3-(n-propylamino)propylamine bis(nitric oxide) adduct],cell viability,[1],did not significantly affect cell viability
N=c1c[n+](N2CCOCC2)[n-]o1 [3-morpholinosydnonimine],IC50,[2],490 µM
"Nc1nc2c(nc(Br)n2[C@@H]2O[C@@H]3COP(=O)(O)O[C@H]3[C@H]2O)c(=O)[nH]1 [8-Br-cGMP, 8-bromoguanosine 3′:5′-cyclic monophosphate]",hypoxic induction of metastatic lung nodules,[3],completely abrogated
same,reduction of hypoxic upregulation of uPAR mRNA expression,uPAR mRNA; [7],up to 100%
same,"effect on hypoxia- and DFO-induced uPAR expression, mRNA level",uPAR mRNA; [8],significantly abrogated
same,DFO-induced upregulation of uPAR mRNA expression,uPAR mRNA; 8-Br-cGMP (1 mM) as printed,complete inhibition
same,reduction of hypoxic upregulation of uPAR protein expression,uPAR protein; [7],up to 100%
same,"effect on hypoxia- and DFO-induced uPAR expression, protein level",uPAR protein; [8],significantly abrogated
same,effect of hypoxia on invasiveness,"[4]; 0.1 μM-1 mM, 24-h, 0.5% O2",completely inhibited
same,hypoxia-associated invasion,[4]; 8-Br-cGMP,significantly inhibit
same,viability of the cells (colony formation assay),[5],did not affect the viability
"NCCN(CCN)/[N+]([O-])=N/O [DETA, Diethylenetriamine/nitric oxide adduct]",attenuation of resistance to 200 μM doxorubicin associated with 3D culture,[6],90%
same,survival of control (doxorubicin-untreated) cells,"[6]; DETA 0.1 mM and 2 μM, GTN 0.1 nM and 1 μM",did not affect the survival
"CC(=O)N(O)CCCCCNC(=O)CCC(=O)N(O)CCCCCNC(=O)CCC(=O)N(O)CCCCCN.CS(=O)(=O)O [DFO, Desferoxamine mesylate]",increase in uPAR mRNA levels,uPAR mRNA; cells cultured in the presence of DFO,4 fold
O=S(=O)(NCCNC/C=C/c1ccc(Br)cc1)c1cccc2cnccc12 [H-89],effect of forskolin on uPAR expression,uPAR mRNA; H-89 1 μM with forskolin 10 μM,prevented
same,uPAR expression,"uPAR mRNA; H-89 1 μM, independent of oxygenation",up-regulation
same,invasiveness,[4]; H-89 1 μM alone,independently enhanced invasiveness
same,effect of forskolin on invasion,[4]; H-89 1 μM with forskolin 10 μM,prevented
COC(=O)[C@@]1(OC)C[C@H]2O[C@]1(C)n1c3ccccc3c3c4c(c5c6ccccc6n2c5c31)C(=O)N(C)C4 [KT5823],effect on the effects of 8-Br-cGMP on uPAR expression,uPAR mRNA; KT5823 10 μM,significantly blunted
same,increase in uPAR mRNA expression,"uPAR mRNA; KT5823 10 μM, 6 hours, 20% O2",1.8 fold
same,increase in uPAR protein expression,"uPAR protein; KT5823 10 μM, 6 hours, 20% O2",1.8 fold
O=NN(O)S(=O)(=O)O [N-nitrosohydroxylamine-N-sulfonate],cell viability,[1],did not significantly affect cell viability
"O=c1onc2cnc3ccccc3n12 [ODQ, 1H-[1,2,4]Oxadiazolo-[4,3-a]Quinoxalin-1-One]","effect on ability of GTN (10^−6 M) to abrogate hypoxic induction of uPAR, mRNA level",uPAR mRNA; ODQ 0.5 μM,substantially prevented
same,increase in uPAR mRNA levels,"uPAR mRNA; ODQ 0.5 μM, 24 hours, vs 20% O2 alone",2.7 fold
same,"effect on ability of GTN (10^−6 M) to abrogate hypoxic induction of uPAR, protein level",uPAR protein; ODQ 0.5 μM,substantially prevented
N[C@@H](CCC(=O)N[C@@H](CSN=O)C(=O)NCC(=O)O)C(=O)O [S-nitroso-L-glutathione],IC50,[2],211 µM
CCN(CC)[N+]([O-])=NO [diethylamine-bis(nitric oxide) adduct sodium salt],cell viability,[1],did not significantly affect cell viability
CC(C)N[N+]([O-])=N[O-].[Na+] [isopropylamine-bis(nitric oxide) adduct sodium salt],cell viability,[1],did not significantly affect cell viability
sodium trioxodinitrate (II) monohydrate,cell viability,[1],did not significantly affect cell viability
